Experimental data as given in patent US20190216772A1, “Antioxidant-Containing Food Composition for Use in Enhancing Antiviral Immunity in Companion Animals” (priority 2008, published 2019).

Experiments:
Type in all cases: in vivo, dog
JAK2 = assay: Whole blood gene expression (canine 2 Affymetrix genechip) in dogs fed lipoic acid food for 30 days; conditions: dogs fed control food containing 150 ppm alpha-lipoic acid for 30 days vs control food; whole blood RNA
Description: (§1) Twenty dogs were fed for 30 days. Ten were fed an AAFCO level control food and 10 other dogs were fed the AAFCO level control food containing 150 ppm alpha-lipoic acid. At the end of the end of the 30 days whole blood samples were collected from each dog in Paxgene tubes.
(§2) Total RNAs were isolated from whole blood samples using the PAXgene RNA isolation kit. All measurements were done with the canine 2 Affymetrix genechips. For statistical analysis, all measurements were normalized with RMA. All analysis was preformed using Partek. An ANOVA t-test was performed for genes that are differentially expressed between the control and test foods. (at least a 20% change in expression with a pvalue<0.05)
(§3) Differentially expressed genes were analyzed with the GeneGo pathway analysis software.

IFNGR2 = assay: as above; conditions: dogs fed control food containing 150 ppm alpha-lipoic acid for 30 days vs control food; whole blood RNA
Description: as §1, §2, §3

IFNAR2 = assay: as above; conditions: dogs fed control food containing 150 ppm alpha-lipoic acid for 30 days vs control food; whole blood RNA
Description: as §1, §2, §3

IFR9 = assay: as above; conditions: dogs fed control food containing 150 ppm alpha-lipoic acid for 30 days vs control food; whole blood RNA
Description: as §1, §2, §3

RNASEL = assay: as above; conditions: dogs fed control food containing 150 ppm alpha-lipoic acid for 30 days vs control food; whole blood RNA
Description: as §1, §2, §3

EIF2AK2 = assay: as above; conditions: dogs fed control food containing 150 ppm alpha-lipoic acid for 30 days vs control food
Description: as §1, §2, §3

CREBBP = assay: as above; conditions: dogs fed control food containing 150 ppm alpha-lipoic acid for 30 days vs control food; whole blood RNA
Description: as §1, §2, §3

[1] = system: interferon mediated antiviral response; assay: GeneGo pathway analysis of differentially expressed genes in dogs fed lipoic acid; conditions: dogs fed lipoic acid for 30 days; 150 ppm in food
Description: as §1, §2, §3

O=C(O)CCCCC1CCSS1 (stereo not drawn) [lipoic acid, alpha-lipoic acid]
Fold Up-regulated, JAK2 (Tyrosine protein kinase JAK2) (JAK2): 1.4 fold | Fold Up-regulated, IFNGR2 (interferon-gamma receptor beta chain precursor) (IFNGR2): 1.2 fold | Fold Up-regulated, IFNAR2 (interferon-alpha/beta receptor beta chain precursor) (IFNAR2): 1.3 fold | Fold Up-regulated, IFR9 (interferon regulatory factor 9) (IFR9): 1.3 fold | Fold Up-regulated, RNASEL (2-5A-dependent ribonuclease) (RNASEL): 1.5 fold | Fold Up-regulated, EIF2AK2 (Interferon-induced double stranded RNA-activated protein) (EIF2AK2): 1.4 fold | Fold Up-regulated, CREBBP (CREB-binding protein) (CREBBP): 1.2 fold | interferon mediated antiviral response (pathway analysis of differentially expressed genes) [1]: exhibited an interferon mediated antiviral response
